Data on 7 compounds can be found in patent publication US9199981B2 (NOVARTIS AG, priority 2011, dated 2015).

For the assay, the target named is c-kit (Homo sapiens (Human), UniProt P10721). Kind of assay: Mo7e cell proliferation assay (SCF dependent proliferation). The format is cell-based. Conditions: Mo7e cells stimulated with human recombinant SCF, 48 hours, 1% FBS. In a few lines:
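SCF-dependent proliferation of human Mo7e cells, which express c-kit endogenously. After 48 h at 37° C, viability read by CellTiter Glo luminescence. IC50 taken as concentration giving response halfway between baseline and maximum.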

Sequence of c-kit (P10721 26-976): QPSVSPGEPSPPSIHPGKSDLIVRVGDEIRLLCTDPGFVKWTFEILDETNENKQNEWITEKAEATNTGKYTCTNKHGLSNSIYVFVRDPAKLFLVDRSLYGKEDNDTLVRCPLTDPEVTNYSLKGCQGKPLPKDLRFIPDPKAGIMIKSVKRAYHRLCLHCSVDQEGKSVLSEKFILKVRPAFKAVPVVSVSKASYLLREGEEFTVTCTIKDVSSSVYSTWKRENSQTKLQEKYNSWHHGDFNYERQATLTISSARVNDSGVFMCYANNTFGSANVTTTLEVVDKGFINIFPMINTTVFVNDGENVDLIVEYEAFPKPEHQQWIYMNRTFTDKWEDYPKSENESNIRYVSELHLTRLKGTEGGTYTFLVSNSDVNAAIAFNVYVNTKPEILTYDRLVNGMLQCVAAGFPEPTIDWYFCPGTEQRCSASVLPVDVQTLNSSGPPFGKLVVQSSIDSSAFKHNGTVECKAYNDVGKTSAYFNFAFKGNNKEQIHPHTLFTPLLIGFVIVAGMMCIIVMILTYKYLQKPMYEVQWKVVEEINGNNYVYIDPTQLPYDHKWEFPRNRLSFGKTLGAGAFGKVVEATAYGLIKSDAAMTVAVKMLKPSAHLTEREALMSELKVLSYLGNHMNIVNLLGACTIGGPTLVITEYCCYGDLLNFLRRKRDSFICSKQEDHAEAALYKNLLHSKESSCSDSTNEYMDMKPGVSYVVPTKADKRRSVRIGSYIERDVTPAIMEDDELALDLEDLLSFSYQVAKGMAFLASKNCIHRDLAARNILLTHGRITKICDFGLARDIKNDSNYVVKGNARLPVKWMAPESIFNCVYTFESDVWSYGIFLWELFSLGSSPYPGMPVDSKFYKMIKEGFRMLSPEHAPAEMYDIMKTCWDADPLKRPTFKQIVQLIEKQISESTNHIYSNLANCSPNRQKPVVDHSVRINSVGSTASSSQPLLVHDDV

What is called IC50 is the concentration that gives 50% inhibition. For `Cc1ccc(-c2noc(C3(C(N)=O)CC3)n2)cc1NC(=O)c1cnc2ccc(F)cn12` [F168], the IC50 was found to be 516 nM.
With `Cc1ccc(-c2noc(C3CC(F)(F)C3)n2)cc1NC(=O)c1cnc2cc(C3CCNCC3)ccn12` [F169], the IC50 was determined as 539 nM.
Regarding `Cc1ccc(-c2noc(C3CC(F)(F)C3)n2)cc1NC(=O)c1cnc2ccc(CCC(=O)O)cn12` [F171], the IC50 was above 10000 nM.
The value for `Cc1ccc(-c2noc([C@H]3C[C@@H](OCC(C)(C)O)C3)n2)cc1NC(=O)c1cnc2ccc(F)cn12` [F172] was above 10000 nM.
`Cc1ccc(-c2noc(C3CC(F)(F)C3)n2)cc1NC(=O)c1cnc2ccc(-c3nnn[nH]3)cn12` [F173]: the IC50 is above 10000 nM.
Then `COC(=O)NC1(c2nc(-c3ccc(C)c(NC(=O)c4cnc5ccccn45)c3)no2)CC(F)(F)C1` [F175, methyl (3,3-difluoro-1-(3-(3-(imidazo[1,2-a]pyridine-3-carboxamido)-4-methylphenyl)-1,2,4-oxadiazol-5-yl)cyclobutyl)carbamate], with 73 nM; and `Cc1ccc(-c2noc(C3CC(F)(F)C3)n2)cc1NC(=O)c1cnc2ccc(COCCF)cn12` [F176, N-(5-(5-(3,3-difluorocyclobutyl)-1,2,4-oxadiazol-3-yl)-2-methylphenyl)-6-((2-fluoroethoxy)methyl)imidazo[1,2-a]pyridine-3-carboxamide], with 67 nM.
